Data set [1] has as its system ob/ob mouse. Kind of data set: Antidiabetic and hypolipidaemic effect in the ob/ob mouse. It is filed as in vivo. The note with it: for reduction of glycaemia: glycaemia 24 hours after the final administration. From the text: Mutations in laboratory animals and also different sensitivities to dietary regimens have allowed the development of animal models having non-insulin dependent diabetes and hyperlipidaemia associated with obesity and with resistance to insulin.
Genetic mice models (ob/ob) (Diabetes, 1982, 31 (1), 1-6) and Zucker (fa/fa) rats have been developed by various laboratories in order to understand the physiopathology of those diseases and test the effectiveness of new antidiabetic compounds (Diabetes, 1983, 32, 830-838).
The 10-week-old female ob/ob mouse (Harlan) is used for the in vivo tests. The animals are kept in a light-darkness cycle of 12 hours at 25° C. The mouse has a basal hyperglycaemia of 2 g/l. The animals are randomly selected in terms of their glycaemia to form groups of six. The compounds tested by the intraperitoneal route are dissolved in a mixture of dimethyl sulphoxide (10%) and solutol (15%) to be administered at 10 mg/kg in a volume of 2.5 ml/kg twice per day for four days. By the per os route, the compounds are tested at 30 mg/kg administered in a volume of 2.5 ml/kg of 1%, HEC twice per day for four days. The control groups receive the solvents under the same conditions as the treated groups. The activity of the products is evaluated by measuring glycaemia 24 hours after the final administration and by measuring body weight daily.

The term melting point denotes the temperature of the solid-liquid transition.

In the case of `COC(=O)C(Cc1ccc(OCCn2c(=O)sc3cc(C(=O)c4ccccc4)ccc32)cc1)C(=O)OC` [Example 18, Dimethyl 2-{4-[2-(6-benzoyl-2-oxo-1,3-benzothiazol-3(2H)-yl)-ethoxy]benzyl}malonate], the reduction of glycaemia in data set [1] (10 mg/kg i.p. twice per day for four days) is recorded as 45%; in data set [1] (30 mg/kg per os twice per day for four days), 43%. Take `COC(=O)C(=Cc1ccc(OCCn2c(=O)sc3cc(NC(=O)c4ccccc4)ccc32)cc1)C(=O)OC` [Example 76, Dimethyl 2-{4-[2-(6-(benzoylamino)-2-oxo-1,3-benzothiazol-3(2H)-yl)ethoxy]benzylidene}malonate]: the melting point was in the range of 186 to 190 °C. As to `COC(=O)C(=Cc1ccc(OCCn2c(=O)sc3cc(C(=O)Nc4ccccc4)ccc32)cc1)C(=O)OC` [Example 84, Dimethyl 2-{4-[2-(6-(anilinocarbonyl)-2-oxo-1,3-benzothiazol-3(2H)-yl)ethoxy]benzylidene}malonate], the melting point is 102 to 105 °C. With `CN(CCOc1ccc(CC2SC(=O)NC2=O)cc1)c1ccccn1` (centres unmarked) [rosiglitazone, reference compound], in data set [1] (ob/ob mouse, in four days, body weight measured daily), the “variation in body weight” value was “+4%”.

The record behind these values is patent US6919362B2, “Heterocyclic derivatives, preparation method and pharmaceutical compositions containing same” (Les Laboratoires Servier, priority 2000, dated 2005).
